Solubility and IC50 data for 6 compounds are collected here from ChEMBL document CHEMBL1135857, “Exploration of peptidyl hydrazones as water-soluble calpain inhibitors” (Bioorg Med Chem Lett, 2002).

Converted amounts (≈) assume the structure as drawn.

Data set [1] can be described thus: Water solubility was determined at pH 4. In kind it is ADME.
Data set [2] can be described thus: Water solubility was determined at pH 5. The class given is ADME.
The nature of data set [3]: Water solubility was determined at pH 6. In kind it is ADME.
Data set [4] is described as follows: Water solubility was determined at pH 7. In kind it is ADME.
The target in data set [5] is T1, Calpain-1 catalytic subunit (Sus scrofa, UniProt P35750).
T1 sequence (P35750 whole entry): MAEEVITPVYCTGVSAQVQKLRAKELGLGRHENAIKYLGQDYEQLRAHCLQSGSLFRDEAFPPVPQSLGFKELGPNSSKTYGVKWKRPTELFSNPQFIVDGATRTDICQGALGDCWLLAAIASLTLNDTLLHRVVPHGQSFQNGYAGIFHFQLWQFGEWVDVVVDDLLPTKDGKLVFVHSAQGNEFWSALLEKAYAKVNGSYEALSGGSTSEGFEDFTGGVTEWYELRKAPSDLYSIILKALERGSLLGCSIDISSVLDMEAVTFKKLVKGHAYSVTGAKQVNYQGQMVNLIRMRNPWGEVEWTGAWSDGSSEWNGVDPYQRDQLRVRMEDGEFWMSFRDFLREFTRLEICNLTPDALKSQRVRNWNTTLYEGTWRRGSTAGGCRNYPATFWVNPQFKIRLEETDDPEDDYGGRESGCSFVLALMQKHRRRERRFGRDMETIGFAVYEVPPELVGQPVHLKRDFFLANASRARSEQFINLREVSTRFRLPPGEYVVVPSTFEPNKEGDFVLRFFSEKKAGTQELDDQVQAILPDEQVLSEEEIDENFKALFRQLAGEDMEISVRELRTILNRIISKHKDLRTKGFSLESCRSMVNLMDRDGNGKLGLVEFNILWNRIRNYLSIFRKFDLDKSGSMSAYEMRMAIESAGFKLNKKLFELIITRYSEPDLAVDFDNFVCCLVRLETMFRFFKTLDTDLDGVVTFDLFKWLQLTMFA
As to the kind of experiment: Tested for inhibitory activity against porcine erythrocyte Mu-calpain.

For `CC(C)[C@H](NS(=O)(=O)c1ccc(F)cc1)C(=O)NC/C=N/NC(=O)CN(C)C`, the solubility in data set [1], in data set [2], in data set [3] and in data set [4] was above 5000 µg/mL throughout. Further, the half-maximal inhibitory concentration (IC50) (in general, the concentration needed to halve the response being measured) in data set [5] was above 10000 nM.

Regarding `CC(C)C[C@@H](/C=N/NC(N)=O)NC(=O)[C@@H](NS(=O)(=O)c1ccc(F)cc1)C(C)C`, the solubility – broadly, the dissolved amount per volume that the medium holds – in data set [1] came to 433 µg/mL (≈ 1010 µM). 680 nM corresponded to half-maximal inhibition in data set [5] (IC50).

On to `CC(C)[C@H](NS(=O)(=O)c1ccc(F)cc1)C(=O)NC/C=N/N1CCOCC1`, for which the solubility in data set [1] is 1260 µg/mL (≈ 3150 µM); in data set [2], 840 µg/mL (≈ 2100 µM); in data set [3], 692 µg/mL (≈ 1730 µM); in data set [4], 667 µg/mL (≈ 1670 µM). Further, in data set [5], it took 6200 nM to reach half-maximal inhibition (IC50).

Take `CC(C)C[C@@H](C=O)NC(=O)[C@@H](NS(=O)(=O)c1ccc(F)cc1)C(C)C`: the solubility came to 102 µg/mL (≈ 274 µM) in data set [1], 100 µg/mL (≈ 268 µM) in data set [3] and 105 µg/mL (≈ 282 µM) in data set [4]. Besides, in data set [5], the IC50 amounted to 35 nM.

Turning to `CC(C)C[C@@H](/C=N/N1CCOCC1)NC(=O)[C@@H](NS(=O)(=O)c1ccc(F)cc1)C(C)C`, the solubility in data set [1] worked out at 67.3 µg/mL (≈ 147 µM); in data set [2], 63.3 µg/mL (≈ 139 µM); in data set [3], 60.8 µg/mL (≈ 133 µM); in data set [4] it was 58.2 µg/mL (≈ 127 µM). The same compound displayed an IC50 in data set [5] of 790 nM.

For `CC(C)C[C@@H](/C=N/NCCO)NC(=O)[C@@H](NS(=O)(=O)c1ccc(F)cc1)C(C)C`, the solubility is 228 µg/mL (≈ 530 µM) in data set [1], 234 µg/mL (≈ 543 µM) in data set [2], 226 µg/mL (≈ 525 µM) in data set [3] and 293 µg/mL (≈ 681 µM) in data set [4]. The IC50 in data set [5] stood at 190 nM.
